From article PMC11357992, “Non-invasive mapping of systemic neutrophil dynamics upon cardiovascular injury” (Nature Cardiovascular Research, 2023)
Values joined by “and” are separate entries in the source; they are usually repeats but may differ in a detail not shown here. Equal entries are not always repeated. Where no end group is shown, it is not given here. carboxyfluorescein = N-terminal fluorescence label (CF)

How the values were obtained:
[1] = system: human neutrophils; assay: 1H/19F MRI of human neutrophils incubated with hNPPFCs/ConPFCs (healthy and STEMI); assay type: cell-based; conditions: versus ConPFC controls
Experimental: After the incubation period, cells were subjected to density gradient centrifugation to separate PFC-loaded cells from free PFCs. Afterward, samples were analyzed by MRI to determine the ^19F signal within the cell layer as described previously.
To determine PFC uptake by human neutrophils by ^19F MRI, cells were isolated from 10 ml of whole blood by density centrifugation. Subsequently, neutrophils (5 × 10^6) were resuspended in 3 ml DMEM and incubated for up to 8 h at 37 °C under constant motion with 10 µl ^hNPPFCs. Afterward, cells were centrifuged at 350g, washed three times with PBS, resuspended in 1 ml MACS buffer, purified by Percoll gradient centrifugation and analyzed by ^1H/^19F MRI.

[2] = system: neutrophils, monocytes and lymphocytes from STEMI blood samples; assay: Uptake of hNPPFCs/ConPFCs by immune cells from patients with STEMI, flow cytometry; assay type: cell-based, human
Experimental: In total, blood samples from 17 patients with STEMI were used (5 female, 12 male; aged 66.9 ± 13.6 years; troponin T, 3,398 ± 3,520 ng l^−1; creatine kinase, 933.4 ± 685.8 U l^−1; lactate dehydrogenase, 547.8 ± 259.9 U l^−1). Samples were analyzed 24 h after MI. Samples from the oral cavity of patients with pericoronitis (n = 6; 4 female, 2 male; 34.1 ± 21.7 years) and explanted human hearts (n = 3; 1 female, 2 male; 41.6 ± 18.2 years) were processed directly after surgery.
Blood was collected from the vena brachialis, and erythrocytes were lysed as described above. After 10 min of incubation, samples were centrifuged at 350g for 10 min at 20 °C. For isolation of a purified neutrophil fraction, density gradient centrifugation was performed. Five milliliters of Ficoll 1.077 (Sigma-Aldrich) was layered on 5 ml Ficoll 1.119 (Sigma-Aldrich), and 20 ml of whole blood diluted 1:2 with PBS was carefully layered on the Ficoll 1.077. Samples were centrifuged at 350g for 20 min with low acceleration and brake. The neutrophil layer was isolated by careful aspiration and washed with PBS. Isolated cells were resuspended in MACS buffer.
A total of 1 × 10^6 cells were incubated with 10 µl of the emulsion over a period of 80 min at 37 °C. At distinct time points, 50 µl of the samples were transferred into 2 ml of ice-cold MACS buffer and analyzed for rhodamine fluorescence by flow cytometry.

[3] = system: neutrophils from explanted failing human hearts; assay: hNPPFC uptake by neutrophils from explanted human hearts, flow cytometry; assay type: cell-based; conditions: 10 µl hNPPFCs, 30 min, 37 °C
Experimental: During orthotopic heart-transplant surgery in patients suffering from terminal heart failure, a tissue specimen of about ~5 g was excised from the apex of the failing heart immediately after explantation. Tissues were immediately transferred to iced BIOPS buffer as described previously. For subsequent isolation of immune cells, heart samples were cut into small pieces and digested with the Multi Tissue Dissociation Kit 2 (Miltenyi; ‘adult rat heart’ protocol) by incubating for 40 min at 37 °C with the specified enzyme mix using the 37C_Multi_G program by gentleMACS. Afterward, 7.5 ml DMEM with 20% FCS was added to stop enzymatic digestion. The sample was applied to a 70-µm cell filter and washed with 3 ml DMEM, followed by centrifugation for 5 min at 300g. The supernatant was discarded, and cells were resuspended in 1 ml DMEM and incubated with 10 µl ^hNPPFCs for 30 min at 37 °C on a vertical shaker. Afterward, cells were washed twice with MACS buffer and stained for CD45, CD11b and CD66b. DAPI staining was performed for exclusion of dead cells. The uptake of ^hNPPFCs into neutrophils (CD45^+CD11b^+CD66b^+) was determined by flow cytometry.

## hNPPFCs: PEGylated rhodamine-labeled perfluorocarbon nanoemulsion coupled with human neutrophil-specific peptide hNP (carboxyfluorescein-DLVTSKLQVGGGC; also: C-terminal Cys coupled via maleimide-PEG2000-DSPE to rhodamine-labelled perfluorocarbon nanoemulsion)
[1]
  19F signal of human neutrophils exposed to PFCs (1H/19F MRI): significantly stronger
[2]; STEMI patients, time 0, single samples #1-#5
  uptake by neutrophils, STEMI - hNPPFCs, raw data: 84.1 and 69.4 and 87.5 and 76.7 and 84.9
[2]; blood obtained within the first 24 h after MI, flow cytometry and 19F MRI
  cellular uptake by neutrophils from patients with STEMI versus healthy volunteers: substantially stronger cellular uptake
[3]
  labeling of neutrophils freshly isolated from explanted failing human hearts: could be labeled
